Experimental findings from patent US20240368203A1, “DEGRADATION OF (EGFR) BY CONJUGATION OF EGFR INHIBITORS WITH E3 LIGASE LIGAND AND METHODS OF USE” (BeiGene, Ltd., priority 2022, published 2024) are described below.

The subject of one assay is EGFR-Del19/T790M/C797S. Kind of assay: EGFR degradation HTRF assay in H1975-clone #28 cells. Format: cell-based. The following applies: H1975-clone #28 (Del19/T790M/C797S) cells, 16 h treatment; for DC50: IC50 (DC50), read-out: DC50(nM) H1975 # 28 DTC; for Dmax (%) H1975 # 28 DTC: maximum percentage of inhibition (degradation). A digest of the protocol:
(§1)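 H1975 clones with endogenous EGFR knocked out, homozygously expressing lentiviral L858R/T790M/C797S (#25) or Del19/T790M/C797S (#28), treated 16 h at 37° C with 8 doses from 10 uM, 5-fold, in 0.2% DMSO. EGFR in lysates measured by HTRF overnight; DC50 from four-parameter fit of % degradation.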
On the technique in general: In TR-FRET formats the signal depends on donor and acceptor labels being close together.

The next assay deals with T1, EGFR-L858R/T790M/C797S (Homo sapiens, UniProt P00533, C797S/L858R/T790M).
T1 construct: expressed in transfected cells; host or cells: H1975-clone #25 (lentiviral over-expression, endogenous EGFR knocked out)
T1 sequence (P00533 25-1210 T790M/C797S/L858R): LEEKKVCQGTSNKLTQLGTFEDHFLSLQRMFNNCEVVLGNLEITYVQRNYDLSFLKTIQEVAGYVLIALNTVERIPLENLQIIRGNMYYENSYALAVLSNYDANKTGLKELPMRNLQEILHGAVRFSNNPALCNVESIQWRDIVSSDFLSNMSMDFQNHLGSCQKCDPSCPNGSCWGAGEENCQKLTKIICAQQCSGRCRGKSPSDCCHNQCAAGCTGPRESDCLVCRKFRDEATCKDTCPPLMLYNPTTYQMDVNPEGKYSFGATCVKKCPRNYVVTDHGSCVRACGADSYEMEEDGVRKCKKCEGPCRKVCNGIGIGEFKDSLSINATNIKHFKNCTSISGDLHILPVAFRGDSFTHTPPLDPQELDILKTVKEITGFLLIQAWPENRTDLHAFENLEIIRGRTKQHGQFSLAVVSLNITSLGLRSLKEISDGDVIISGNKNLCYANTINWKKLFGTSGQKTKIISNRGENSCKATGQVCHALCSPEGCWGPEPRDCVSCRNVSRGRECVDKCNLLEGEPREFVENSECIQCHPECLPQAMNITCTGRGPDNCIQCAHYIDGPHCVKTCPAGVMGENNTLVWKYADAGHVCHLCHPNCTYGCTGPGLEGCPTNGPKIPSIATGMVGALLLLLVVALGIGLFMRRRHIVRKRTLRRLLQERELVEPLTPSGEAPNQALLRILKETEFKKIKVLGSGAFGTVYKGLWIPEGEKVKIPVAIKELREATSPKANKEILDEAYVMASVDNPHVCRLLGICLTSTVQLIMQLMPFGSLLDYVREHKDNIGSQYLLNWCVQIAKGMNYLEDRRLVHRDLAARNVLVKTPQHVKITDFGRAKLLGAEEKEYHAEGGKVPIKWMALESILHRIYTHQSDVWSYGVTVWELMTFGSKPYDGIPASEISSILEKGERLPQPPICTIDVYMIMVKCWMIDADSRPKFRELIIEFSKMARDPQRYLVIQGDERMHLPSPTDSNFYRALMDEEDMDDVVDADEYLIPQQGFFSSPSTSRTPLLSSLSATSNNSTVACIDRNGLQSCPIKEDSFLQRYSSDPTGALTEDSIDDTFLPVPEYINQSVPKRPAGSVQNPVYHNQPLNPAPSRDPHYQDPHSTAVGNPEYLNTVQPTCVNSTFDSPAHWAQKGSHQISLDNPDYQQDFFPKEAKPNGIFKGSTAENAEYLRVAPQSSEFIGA
The experiment in a line: EGFR degradation HTRF assay in H1975-clone #25 cells. The note with it: 16 h treatment; for DC50: H1975-clone #25 (L858R/T790M/C797S) cells, IC50 (DC50), read-out: DC50(nM) H1975 # 25-LTC; for Dmax: NCI-H1975, H1975-clone #25 (L858R/T790M/C797S) cells, maximum percentage of inhibition (degradation), read-out: Dmax (%) H1975 # 25-LTC. It counts as cell-based. A digest of the protocol:
as §1

For `CCc1cc(Nc2ncc(Br)c(Nc3ccc4nc(C)c(F)cc4c3P(C)(C)=O)n2)c(OC)cc1N1CCC2(CC1)CCN(C1CCN(c3cccc4c3n(C)c(=O)n4C3CCC(=O)NC3=O)CC1)CC2` (centres unmarked) [Example 51, 3-(4-(4-(9-(4-((5-bromo-4-((5-(dimethylphosphoryl)-3-fluoro-2-methylquinolin-6-yl)amino)pyrimidin-2-yl)amino)-2-ethyl-5-methoxyphenyl)-3,9-diazaspiro[5.5]undecan-3-yl)piperidin-1-yl)-3-methyl-2-oxo-2,3-dihydro-1H-benzo[d]imidazol-1-yl)piperidine-2,6-dione], in the assay with EGFR-Del19/T790M/C797S, the DC50 amounted to 2.5 nM and the “Dmax (%) H1975 # 28 DTC” value is recorded as 77%. At EGFR-L858R/T790M/C797S, the half-maximal degradation concentration (DC50) was 3.1 nM and the Dmax came to 89%.

As to `CCc1cc(Nc2ncc(Br)c(Nc3ccc4nc(C)c(F)cc4c3P(C)(C)=O)n2)c(OC)cc1N1CCC2(CC1)CCN(C1CCN(c3cccc4c3C(C)(C)C(=O)N4C3CCC(=O)NC3=O)CC1)CC2` (centres unmarked) [Example 52, 3-(4-(4-(9-(4-((5-bromo-4-((5-(dimethylphosphoryl)-3-fluoro-2-methylquinolin-6-yl)amino)pyrimidin-2-yl)amino)-2-ethyl-5-methoxyphenyl)-3,9-diazaspiro[5.5]undecan-3-yl)piperidin-1-yl)-3,3-dimethyl-2-oxoindolin-1-yl)piperidine-2,6-dione], in the assay on EGFR-Del19/T790M/C797S, the DC50 stood at 3.4 nM and the “Dmax (%) H1975 # 28 DTC” value amounted to 79%. For the same molecule, at EGFR-L858R/T790M/C797S, the DC50 was found to be 3.8 nM and the Dmax stood at 90%.

Take `CCOc1cc(N2CCC(N3CCN(C4CCN(c5cc(F)c([C@H]6CCC(=O)NC6=O)c(F)c5)CC4)CC3)CC2)c(CC)cc1Nc1ncc(Cl)c(Nc2ccc3nc(C)c(F)cc3c2P(C)(C)=O)n1` [Example 54, (R)-3-(4-(4-(4-(1-(4-((5-chloro-4-((5-(dimethylphosphoryl)-3-fluoro-2-methylquinolin-6-yl)amino)pyrimidin-2-yl)amino)-5-ethoxy-2-ethylphenyl)piperidin-4-yl)piperazin-1-yl)piperidin-1-yl)-2,6-difluorophenyl)piperidine-2,6-dione]: in the assay on EGFR-Del19/T790M/C797S, the DC50 was 3.6 nM and the “Dmax (%) H1975 # 28 DTC” value turned out to be 86%. Moreover, on EGFR-L858R/T790M/C797S, the DC50 was 3.6 nM and the maximal degradation (Dmax) was 88%.

For `CCc1ncc2c(P(C)(C)=O)c(Nc3nc(Nc4cc(CC)c(N5CCC(N6CC(CN7CCC(c8cc(F)c([C@H]9CCC(=O)NC9=O)c(F)c8)CC7)C6)CC5)cc4OC)ncc3Br)ccc2n1` [Example 55, (R)-3-(4-(1-((1-(1-(4-((5-bromo-4-((5-(dimethylphosphoryl)-2-ethylquinazolin-6-yl)amino)pyrimidin-2-yl)amino)-2-ethyl-5-methoxyphenyl)piperidin-4-yl)azetidin-3-yl)methyl)piperidin-4-yl)-2,6-difluorophenyl)piperidine-2,6-dione], in the assay on EGFR-Del19/T790M/C797S, the DC50 was found to be 5.6 nM and the “Dmax (%) H1975 # 28 DTC” value stood at 91%. Besides, on EGFR-L858R/T790M/C797S, the 50% degradation concentration (DC50) worked out at 2.4 nM and the maximal degradation (Dmax) came to 92%.

Turning to `CCc1cc(Nc2ncc(Br)c(Nc3ccc4nc(C)c(F)cc4c3P(C)(C)=O)n2)c(OC)cc1N1CCC(N2CC(CN3CCC(c4cc(F)c([C@H]5CCC(=O)NC5=O)c(F)c4)CC3)C2)CC1` [Example 56, (R)-3-(4-(1-((1-(1-(4-((5-bromo-4-((5-(dimethylphosphoryl)-3-fluoro-2-methylquinolin-6-yl)amino)pyrimidin-2-yl)amino)-2-ethyl-5-methoxyphenyl)piperidin-4-yl)azetidin-3-yl)methyl)piperidin-4-yl)-2,6-difluorophenyl)piperidine-2,6-dione], in the assay on EGFR-Del19/T790M/C797S, the DC50 stood at 8.2 nM and the “Dmax (%) H1975 # 28 DTC” value was 86%. Moreover, at EGFR-L858R/T790M/C797S, the half-maximal degradation concentration (DC50) amounted to 5.6 nM and the maximal degradation (Dmax) turned out to be 90%.

As usually defined, the DC50 is the concentration giving 50% degradation. The term Dmax denotes the largest share of the target that was removed.
